The values that follow come from ChEMBL document CHEMBL3991601, “The target landscape of clinical kinase drugs” (Science, 2017).

Assay [1] deals with T1, Interleukin-1 receptor-associated kinase 4 (Homo sapiens, UniProt Q9NWZ3).
T1 sequence (Q9NWZ3 whole entry): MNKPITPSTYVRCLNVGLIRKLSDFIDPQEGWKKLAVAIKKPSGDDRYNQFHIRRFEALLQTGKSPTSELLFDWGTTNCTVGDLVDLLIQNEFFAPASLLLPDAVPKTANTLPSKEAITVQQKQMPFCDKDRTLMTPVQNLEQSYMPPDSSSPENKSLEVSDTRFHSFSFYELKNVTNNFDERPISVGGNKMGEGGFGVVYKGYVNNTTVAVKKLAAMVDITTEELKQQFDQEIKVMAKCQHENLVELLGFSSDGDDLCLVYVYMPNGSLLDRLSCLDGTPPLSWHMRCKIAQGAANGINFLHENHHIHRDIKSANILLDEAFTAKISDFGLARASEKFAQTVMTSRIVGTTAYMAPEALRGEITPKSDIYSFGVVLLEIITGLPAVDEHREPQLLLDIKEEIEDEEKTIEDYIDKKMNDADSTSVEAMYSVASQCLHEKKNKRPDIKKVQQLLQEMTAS

The next assay deals with Adenosine kinase (Homo sapiens, UniProt P55263).
Assay [2] deals with Bone morphogenetic protein receptor type-1B (Homo sapiens, UniProt O00238).
The target of assay [3] is Tyrosine-protein kinase Fer (Homo sapiens, UniProt P16591).
Assay [4] has as its target Platelet-derived growth factor receptor beta (Homo sapiens, UniProt P09619).
Assay [5] deals with U5 small nuclear ribonucleoprotein 200 kDa helicase (Homo sapiens, UniProt O75643).
In assay [6] the target is Mitogen-activated protein kinase 8 (Homo sapiens, UniProt P45983).
The target in assay [7] is GTP-binding nuclear protein Ran (Homo sapiens, UniProt P62826).
Assay [8] addresses Protein kinase C alpha type (Homo sapiens, UniProt P17252).
Assay [9] concerns the target Serine/threonine-protein kinase 26 (Homo sapiens, UniProt Q9P289).
Assay [10] concerns the target T2, Glycogen phosphorylase, liver form (Homo sapiens, UniProt P06737).
T2 sequence (P06737 whole entry): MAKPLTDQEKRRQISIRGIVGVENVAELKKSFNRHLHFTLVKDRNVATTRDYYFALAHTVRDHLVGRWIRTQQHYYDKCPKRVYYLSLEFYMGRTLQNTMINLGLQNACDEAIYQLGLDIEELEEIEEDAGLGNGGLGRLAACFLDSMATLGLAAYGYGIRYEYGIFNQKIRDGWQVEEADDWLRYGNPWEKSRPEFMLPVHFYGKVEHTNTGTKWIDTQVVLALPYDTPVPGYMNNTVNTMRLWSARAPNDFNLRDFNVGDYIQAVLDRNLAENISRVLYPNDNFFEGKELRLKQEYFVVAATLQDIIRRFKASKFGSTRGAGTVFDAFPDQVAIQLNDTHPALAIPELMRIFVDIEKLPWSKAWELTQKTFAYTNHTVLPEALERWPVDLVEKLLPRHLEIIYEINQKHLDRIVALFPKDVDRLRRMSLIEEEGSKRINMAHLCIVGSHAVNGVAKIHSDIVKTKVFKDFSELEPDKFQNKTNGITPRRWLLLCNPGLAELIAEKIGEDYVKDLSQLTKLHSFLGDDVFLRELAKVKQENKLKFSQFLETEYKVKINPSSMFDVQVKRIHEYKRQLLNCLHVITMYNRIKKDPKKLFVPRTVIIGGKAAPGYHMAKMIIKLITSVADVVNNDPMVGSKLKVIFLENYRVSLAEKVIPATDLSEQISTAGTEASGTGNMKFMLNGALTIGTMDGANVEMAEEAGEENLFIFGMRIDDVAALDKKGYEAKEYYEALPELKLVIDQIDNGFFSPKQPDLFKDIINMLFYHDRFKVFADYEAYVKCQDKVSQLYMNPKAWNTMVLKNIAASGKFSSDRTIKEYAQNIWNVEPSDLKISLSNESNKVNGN
Type of assay: subcellular, K-562, COLO 205, SK-N-BE(2) and MV-4-11, Cell lysate. The following applies: read-out: Kd apparent.

The target in assay [11] is T3, Dynamin-like GTPase OPA1, mitochondrial (Homo sapiens, UniProt O60313).
T3 sequence (O60313 whole entry): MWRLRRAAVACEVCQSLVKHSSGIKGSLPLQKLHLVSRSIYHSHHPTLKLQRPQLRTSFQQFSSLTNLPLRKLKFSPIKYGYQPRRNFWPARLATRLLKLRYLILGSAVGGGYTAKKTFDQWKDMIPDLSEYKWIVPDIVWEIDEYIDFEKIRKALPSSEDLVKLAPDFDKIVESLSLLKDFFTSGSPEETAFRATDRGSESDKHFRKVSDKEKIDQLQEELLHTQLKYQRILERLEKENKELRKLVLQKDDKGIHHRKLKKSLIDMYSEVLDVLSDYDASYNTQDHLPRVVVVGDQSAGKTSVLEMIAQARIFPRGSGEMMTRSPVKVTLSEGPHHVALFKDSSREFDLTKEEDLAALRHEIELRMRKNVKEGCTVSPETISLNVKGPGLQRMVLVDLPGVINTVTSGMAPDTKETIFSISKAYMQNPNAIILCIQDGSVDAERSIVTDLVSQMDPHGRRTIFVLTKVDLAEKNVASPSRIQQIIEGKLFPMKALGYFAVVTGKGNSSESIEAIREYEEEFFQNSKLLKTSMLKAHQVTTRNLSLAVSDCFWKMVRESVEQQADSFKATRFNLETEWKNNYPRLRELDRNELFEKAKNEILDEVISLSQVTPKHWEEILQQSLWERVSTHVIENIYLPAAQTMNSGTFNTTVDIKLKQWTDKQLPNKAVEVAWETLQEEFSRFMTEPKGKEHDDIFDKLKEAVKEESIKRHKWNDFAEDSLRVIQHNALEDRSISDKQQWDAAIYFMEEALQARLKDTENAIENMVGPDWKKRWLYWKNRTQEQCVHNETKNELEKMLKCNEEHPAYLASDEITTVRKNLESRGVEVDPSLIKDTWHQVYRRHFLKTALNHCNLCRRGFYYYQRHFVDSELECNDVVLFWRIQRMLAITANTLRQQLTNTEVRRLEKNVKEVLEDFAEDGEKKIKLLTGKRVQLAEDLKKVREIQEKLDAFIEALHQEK

The target in assay [12] is Serine/threonine-protein kinase 16 (Homo sapiens, UniProt O75716).
The target of assay [13] is DnaJ homolog subfamily A member 1 (Homo sapiens, UniProt P31689).

Active and inactive are the calls of the source. Cut-off read from the data, not from the text of the source, for most assays here: actives have a measured Kd and inactives only a lower limit.
Note: in the data inactive means no Kd found up to 30 µM.

Sequence of Serine/threonine-protein kinase 26 (Q9P289 whole entry): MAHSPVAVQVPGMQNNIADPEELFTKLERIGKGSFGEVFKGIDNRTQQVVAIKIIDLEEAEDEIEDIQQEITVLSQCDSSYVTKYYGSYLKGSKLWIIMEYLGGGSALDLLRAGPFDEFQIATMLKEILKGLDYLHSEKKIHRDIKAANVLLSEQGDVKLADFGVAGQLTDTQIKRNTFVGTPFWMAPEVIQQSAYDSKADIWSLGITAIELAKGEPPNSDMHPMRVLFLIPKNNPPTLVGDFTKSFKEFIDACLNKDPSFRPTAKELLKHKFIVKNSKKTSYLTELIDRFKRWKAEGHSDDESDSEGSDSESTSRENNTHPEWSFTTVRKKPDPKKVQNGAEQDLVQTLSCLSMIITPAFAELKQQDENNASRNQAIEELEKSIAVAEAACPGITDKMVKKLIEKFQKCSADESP
Sequence of Mitogen-activated protein kinase 8 (P45983 whole entry): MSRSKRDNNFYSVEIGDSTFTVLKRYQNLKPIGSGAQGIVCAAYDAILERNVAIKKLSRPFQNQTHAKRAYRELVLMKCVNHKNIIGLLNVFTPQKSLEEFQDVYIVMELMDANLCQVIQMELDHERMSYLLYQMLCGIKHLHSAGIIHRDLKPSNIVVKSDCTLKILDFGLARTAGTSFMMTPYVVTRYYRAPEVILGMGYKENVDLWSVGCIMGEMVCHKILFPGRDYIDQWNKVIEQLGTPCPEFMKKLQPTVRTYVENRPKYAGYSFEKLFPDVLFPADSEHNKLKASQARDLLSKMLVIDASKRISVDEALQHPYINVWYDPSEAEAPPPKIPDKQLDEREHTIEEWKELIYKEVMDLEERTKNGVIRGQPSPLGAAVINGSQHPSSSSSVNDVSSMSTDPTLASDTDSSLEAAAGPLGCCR
Sequence of Adenosine kinase (P55263 whole entry): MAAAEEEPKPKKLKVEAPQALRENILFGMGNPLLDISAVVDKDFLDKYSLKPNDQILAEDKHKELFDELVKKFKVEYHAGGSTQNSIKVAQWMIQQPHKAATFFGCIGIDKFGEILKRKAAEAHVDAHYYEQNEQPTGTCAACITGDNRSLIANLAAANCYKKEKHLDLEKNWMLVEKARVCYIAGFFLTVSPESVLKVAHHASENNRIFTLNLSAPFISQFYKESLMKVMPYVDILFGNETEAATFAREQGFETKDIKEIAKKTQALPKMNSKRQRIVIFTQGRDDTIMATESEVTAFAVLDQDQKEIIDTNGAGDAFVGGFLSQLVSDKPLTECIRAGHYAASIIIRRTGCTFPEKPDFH
Sequence of Serine/threonine-protein kinase 16 (O75716 whole entry): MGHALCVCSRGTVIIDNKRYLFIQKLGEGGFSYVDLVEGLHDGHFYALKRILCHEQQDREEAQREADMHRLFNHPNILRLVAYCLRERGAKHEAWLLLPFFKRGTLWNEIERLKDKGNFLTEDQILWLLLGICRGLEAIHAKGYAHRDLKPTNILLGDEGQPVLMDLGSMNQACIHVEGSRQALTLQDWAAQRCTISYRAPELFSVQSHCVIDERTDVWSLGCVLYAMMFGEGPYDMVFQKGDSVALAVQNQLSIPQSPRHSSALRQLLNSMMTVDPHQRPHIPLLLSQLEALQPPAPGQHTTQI
Sequence of Platelet-derived growth factor receptor beta (P09619 whole entry): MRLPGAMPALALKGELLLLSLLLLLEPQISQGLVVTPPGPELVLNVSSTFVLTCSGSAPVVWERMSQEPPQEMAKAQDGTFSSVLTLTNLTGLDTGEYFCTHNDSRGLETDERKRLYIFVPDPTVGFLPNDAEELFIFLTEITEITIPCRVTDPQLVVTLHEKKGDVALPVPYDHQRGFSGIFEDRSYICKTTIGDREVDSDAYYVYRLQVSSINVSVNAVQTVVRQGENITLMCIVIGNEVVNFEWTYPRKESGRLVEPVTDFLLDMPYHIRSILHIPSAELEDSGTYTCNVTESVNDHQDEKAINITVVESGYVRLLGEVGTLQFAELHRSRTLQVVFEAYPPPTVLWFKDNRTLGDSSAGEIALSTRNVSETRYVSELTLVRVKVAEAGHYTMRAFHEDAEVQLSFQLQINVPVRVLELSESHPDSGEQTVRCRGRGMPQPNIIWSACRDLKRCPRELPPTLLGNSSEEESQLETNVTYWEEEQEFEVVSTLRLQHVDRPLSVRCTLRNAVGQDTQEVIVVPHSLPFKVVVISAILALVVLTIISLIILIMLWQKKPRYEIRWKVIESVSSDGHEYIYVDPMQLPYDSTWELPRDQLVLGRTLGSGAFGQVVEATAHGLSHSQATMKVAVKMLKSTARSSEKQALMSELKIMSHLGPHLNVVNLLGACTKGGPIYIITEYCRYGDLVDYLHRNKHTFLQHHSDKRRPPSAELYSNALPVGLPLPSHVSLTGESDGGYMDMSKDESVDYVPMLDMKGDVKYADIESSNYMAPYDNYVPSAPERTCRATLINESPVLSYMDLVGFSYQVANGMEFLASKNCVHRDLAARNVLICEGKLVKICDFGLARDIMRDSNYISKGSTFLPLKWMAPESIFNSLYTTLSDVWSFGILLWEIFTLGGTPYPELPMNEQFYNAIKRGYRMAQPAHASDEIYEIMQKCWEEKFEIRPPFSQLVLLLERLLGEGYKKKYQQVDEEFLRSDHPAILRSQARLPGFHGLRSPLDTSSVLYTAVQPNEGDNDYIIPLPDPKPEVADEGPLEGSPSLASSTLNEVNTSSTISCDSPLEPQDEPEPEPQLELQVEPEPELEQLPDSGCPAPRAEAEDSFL
Sequence of Bone morphogenetic protein receptor type-1B (O00238 whole entry): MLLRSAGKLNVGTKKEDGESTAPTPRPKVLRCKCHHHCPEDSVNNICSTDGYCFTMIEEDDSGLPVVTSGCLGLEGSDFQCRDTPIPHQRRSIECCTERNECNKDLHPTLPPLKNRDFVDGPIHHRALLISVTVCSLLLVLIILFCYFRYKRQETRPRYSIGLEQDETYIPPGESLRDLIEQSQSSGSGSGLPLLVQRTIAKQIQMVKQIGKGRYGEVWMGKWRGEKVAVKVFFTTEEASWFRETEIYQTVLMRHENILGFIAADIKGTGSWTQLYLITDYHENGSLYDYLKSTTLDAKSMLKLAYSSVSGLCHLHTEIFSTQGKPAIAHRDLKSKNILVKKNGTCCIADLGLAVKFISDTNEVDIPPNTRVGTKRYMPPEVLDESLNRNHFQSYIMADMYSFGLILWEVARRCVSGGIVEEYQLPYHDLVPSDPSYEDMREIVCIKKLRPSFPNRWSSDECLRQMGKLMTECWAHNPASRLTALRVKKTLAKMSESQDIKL
Sequence of Tyrosine-protein kinase Fer (P16591 whole entry): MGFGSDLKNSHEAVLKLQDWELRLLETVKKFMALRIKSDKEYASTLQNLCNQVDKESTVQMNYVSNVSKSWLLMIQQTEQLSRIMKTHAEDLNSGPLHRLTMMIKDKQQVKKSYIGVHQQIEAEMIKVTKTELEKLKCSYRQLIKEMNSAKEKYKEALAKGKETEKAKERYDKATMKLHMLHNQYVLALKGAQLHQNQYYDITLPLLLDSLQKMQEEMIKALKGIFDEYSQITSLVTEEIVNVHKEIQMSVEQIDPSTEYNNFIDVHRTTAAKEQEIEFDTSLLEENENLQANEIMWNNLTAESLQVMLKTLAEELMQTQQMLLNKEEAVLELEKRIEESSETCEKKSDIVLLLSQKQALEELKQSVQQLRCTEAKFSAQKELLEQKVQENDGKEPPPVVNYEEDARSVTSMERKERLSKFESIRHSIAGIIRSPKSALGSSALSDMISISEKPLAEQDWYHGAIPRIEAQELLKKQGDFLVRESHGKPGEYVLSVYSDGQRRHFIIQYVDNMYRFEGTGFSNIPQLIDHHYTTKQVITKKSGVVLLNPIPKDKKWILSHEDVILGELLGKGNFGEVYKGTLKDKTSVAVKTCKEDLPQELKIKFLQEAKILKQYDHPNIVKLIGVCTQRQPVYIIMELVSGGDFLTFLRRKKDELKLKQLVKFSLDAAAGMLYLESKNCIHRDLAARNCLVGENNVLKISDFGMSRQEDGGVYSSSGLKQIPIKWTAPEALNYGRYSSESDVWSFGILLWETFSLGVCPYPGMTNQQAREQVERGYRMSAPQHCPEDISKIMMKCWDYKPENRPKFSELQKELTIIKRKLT
Sequence of DnaJ homolog subfamily A member 1 (P31689 whole entry): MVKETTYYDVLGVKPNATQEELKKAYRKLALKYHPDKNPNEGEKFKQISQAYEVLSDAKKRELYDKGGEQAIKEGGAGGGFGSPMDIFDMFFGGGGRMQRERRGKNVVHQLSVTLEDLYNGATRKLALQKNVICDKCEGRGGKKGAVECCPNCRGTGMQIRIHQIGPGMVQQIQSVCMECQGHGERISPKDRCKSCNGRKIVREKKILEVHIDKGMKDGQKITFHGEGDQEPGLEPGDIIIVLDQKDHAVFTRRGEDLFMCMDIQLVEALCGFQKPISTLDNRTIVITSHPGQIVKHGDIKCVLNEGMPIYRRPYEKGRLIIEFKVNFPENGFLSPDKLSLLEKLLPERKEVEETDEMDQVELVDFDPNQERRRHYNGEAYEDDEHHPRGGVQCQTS

For `CCn1c(=O)c(-c2cc[nH]n2)cc2c(C)nc(N)nc21` [VOXTALISIB], the Kd (in assay [1]; on Adenosine kinase; in [2]; in [3]; in assay [4]; in assay [5]) was > 30 µM (inactive) each time. Moreover, the Kd in assay [6], in [7], in assay [8], in [9], in [10] and in [11] was > 30 µM (inactive) each time. Further, the Kd in assay [12] and in assay [13] was > 30 µM (inactive) throughout.
As to `CO[C@H]1C[C@@H]2CC[C@@H](C)[C@@](O)(O2)C(=O)C(=O)N2CCCC[C@H]2C(=O)O[C@H]([C@H](C)C[C@@H]2CC[C@@H](OCCO)[C@H](OC)C2)CC(=O)[C@H](C)/C=C(\C)[C@@H](O)[C@@H](OC)C(=O)[C@H](C)C[C@H](C)/C=C/C=C/C=C/1C` [EVEROLIMUS], the Kd (in [1]; at Adenosine kinase; in assay [2]; in [3]; in assay [4]; in [5]) was > 30 µM (inactive) throughout. Also, the Kd in assay [6], in assay [7], in assay [8], in assay [9], in [10] and in assay [11] was > 30 µM (inactive) in each case. The Kd in assay [12] and in assay [13] was > 30 µM (inactive) throughout.
Consider `CCCS(=O)(=O)Nc1ccc(F)c(C(=O)c2c[nH]c3ncc(-c4ccc(Cl)cc4)cc23)c1F` [VEMURAFENIB], for which the Kd (in [1]; on Adenosine kinase; in assay [2]; in assay [3]; in assay [4]; in assay [5]) was > 30 µM (inactive) each time. Also, the Kd in assay [6], in [7], in [8], in [9], in assay [10] and in [11] was > 30 µM (inactive) in each case. For the same compound, the Kd in assay [12] and in assay [13] was > 30 µM (inactive) each time.
For `O=C(Nc1ccc(-c2ccnc(Nc3ccc(N4CCOCC4)cc3)n2)cc1)C1CCCN1` (stereo not drawn) [XL-019], the Kd was > 30 µM (inactive) in assay [1]; > 30 µM (inactive) on Adenosine kinase; > 30 µM (inactive) in assay [2]; > 30 µM (inactive) in [3]; 1.12 µM (active) in assay [4]; > 30 µM (inactive) in assay [5]. In addition, the Kd in assay [6] was 0.844 µM (active); in assay [7] it was > 30 µM (inactive); in [8], > 30 µM (inactive); in [9], > 30 µM (inactive); in [10] it was > 30 µM (inactive); in [11], > 30 µM (inactive). Further, the Kd in assay [12] and in [13] was > 30 µM (inactive) in each case.
On to `CNC(=O)CN1CCC(Oc2cc3c(Nc4cccc(Cl)c4F)ncnc3cc2OC)CC1` [SAPITINIB], for which the Kd is > 30 µM (inactive) in assay [1]; 1.4 µM at Adenosine kinase; > 30 µM (inactive) in assay [2]; > 30 µM (inactive) in [3]; > 30 µM (inactive) in [4]; > 30 µM (inactive) in [5]. The Kd in [6], in assay [7], in [8], in [9], in [10] and in [11] was > 30 µM (inactive) each time. The Kd in assay [12] and in assay [13] was > 30 µM (inactive) in each case.
For the compound `CC(=O)Nc1cccc(-n2c(=O)n(C3CC3)c(=O)c3c(Nc4ccc(I)cc4F)n(C)c(=O)c(C)c32)c1` [TRAMETINIB], the Kd (in assay [1]; on Adenosine kinase; in [2]; in assay [3]; in assay [4]; in assay [5]) was > 30 µM (inactive) throughout. For the same compound, the Kd in assay [6], in assay [7], in [8], in [9], in [10] and in [11] was > 30 µM (inactive) throughout. Further, the Kd in [12] and in [13] was > 30 µM (inactive) each time.
As to `COC(=O)N[C@@H](C)CNc1nccc(-c2cn(C(C)C)nc2-c2cc(Cl)cc(NS(C)(=O)=O)c2F)n1` [ENCORAFENIB], the Kd (in assay [1]; at Adenosine kinase; in assay [2]; in assay [3]; in [4]; in assay [5]) was > 30 µM (inactive) in each case. Besides, the Kd is 1.87 µM (active) in assay [6]; > 30 µM (inactive) in assay [7]; > 30 µM (inactive) in assay [8]; > 30 µM (inactive) in assay [9]; > 30 µM (inactive) in assay [10]; > 30 µM (inactive) in assay [11]. The Kd in assay [12] and in [13] was > 30 µM (inactive) in each case.
